Laboratory results published in patent US5037830A, “Novel thiouracyl derivatives, pharmaceutical compositions containing them and process for preparing same” (Richter Gedeon Vegyeszeti Gyar RT, priority 1989, dated 1991).
Where two headings read alike, the source gives them in different places.

What was measured:
[1] = tested on: spontaneous gastric acid secretion; experiment: Gastric acid secretion-inhibiting effect according to Shay's method; assay type: in vivo, female OFA rats; conditions: for Gastric acid, change / Gastric juice, change: vs control; for Gastric acid, treated: titration with 0.1N NaOH
Method: After being starved for 24 hours, female OFA rats weighing 130 to 160 g were orally treated with the compounds to be tested. (15 animals were used for each dose.) One hour later laparotomy and pylorus ligature were carried out under ether anaesthesia according to Shay [Gastroenterology 5, 43 (1945)]. After 5 hours the animals were killed by an overdose of ether, their stomaches were excised and the volume and acid content of the gastric juice were determined. The acid was measured by titration with 0.1N NaOH, by using Topfer's indicator.

[2] = tested on: histamine-induced gastric acid secretion; experiment: Inhibition of the histamine-induced gastric acid secretion in rats; assay type: in vivo, male OFA rats; conditions: for Gastric acid, change / Gastric juice, change: vs control; for Gastric juice, treated: histamine 5 mg/kg/hour;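 on Gastric acid, treated: dosed 30 min before a 5 hour experiment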
Method: (§1) After being starved for 24 hours, male OFA rats weighing 250 to 320 g were anaestethized by 40% urethane (0.5 ml/100 g), then the trachea and jugular vein were cannulated (10 animals were used for each dose). A glass cannula was inserted to the stomach from the direction of the pylorus. The stomach was washed with lukewarm water and then purified by air blown through. The gastric acid secretion was induced by an infusion of histamine (5 mg/kg/hour), or pentagastrin (0.05 mg/kg/hour) or carbachol (0.01 mg/kg/hour), respectively. […]

[3] = tested on: carbachol-induced gastric acid secretion; experiment: Inhibition of the carbachol-induced gastric acid secretion in rats; assay type: in vivo, male OFA rats; conditions: for Gastric acid, change / Gastric juice, change: vs control; for Gastric juice, treated: carbachol 0.01 mg/kg/hour;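 on Gastric acid, treated: dosed 30 min before a 5 hour experiment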
Method: as §1

[4] = tested on: necrosis induced by ethanol containing hydrochloric acid; experiment: Cytoprotective effect (modified Robert's test); assay type: in vivo; conditions: for Bleedings, change: vs control
Method: The modified Robert's test [Gastroenterology 17, 761 (1979)] was used. The necrotizing agent (100 ml of abs. ethanol containing 2 ml of concentrated hydrochloric acid) was orally administered in a volume of 0.5 ml/100 g by 30 minutes after giving the compound to be tested. (12 animals were used for each dose.) After 1 hour the animals were killed by ether and the bleedings on the glandular part of their stomach were evaluated.

[5] = tested on: gastric ulcer after pylorus ligature; experiment: Gastric ulcer-inhibiting effect in rats operated according to Shay's method; assay type: in vivo, female OFA rats; conditions: Rattus norvegicus, po, 18 h, p.o.
Method: Female OFA rats starved for 24 hours weighing 150 to 160 g were used. (The animals were allowed to drink water ad libitum). The animals were orally treated with the substance to be tested and after 1 hour laparotomy and pylorus ligature according to Shay [Gastroenterology 5, 43 (1945)] were performed under ether anaesthesia. After 18 hours the number and size of ulcers formed on the membranaceous part of the stomach were examined under microscope. The evaluation was made in relation to the control group and the ED50 values were determined. The sizes of the ulcers were expressed as score values from 0.5 to 32.

[6] = tested on: reserpine-induced gastric ulcer; experiment: Inhibition of the reserpine-induced gastric ulcer; assay type: in vivo, female OFA rats; conditions: Rattus norvegicus, po, 18 h, p.o., reserpine 5 mg/kg s.c.
Method: After being starved for 24 hours, female OFA rats were orally treated with the compounds to be tested and then subcutaneously (s.c.) with 5 mg/kg of reserpine after 1 hour. After 18 hours the animals were killed and their stomach were examined under microscope. The evaluation was performed as described under the preceding paragraph 1.

[7] = tested on: indomethacin-induced gastric ulcer; experiment: Inhibition of the indomethacin-induced gastric ulcer; assay type: in vivo, female RG-Wistar rats; conditions: Rattus norvegicus, po; indomethacin 20 mg/kg orally
Method: After being starved for 24 hours, female RG-Wistar rats were orally treated with the compounds to be tested and then orally with 20 mg/kg of indomethacin after 30 minutes. The evaluation was carried out in relation to the control group and the ED50 values were determined.

[8] = tested on: gastric ulcer induced by Aspirin plus stress; experiment: Inhibition of the gastric ulcer induced by Aspirin plus stress; assay type: in vivo, female RG-Wistar rats; conditions: Rattus norvegicus, po; Aspirin plus stress
Method: After being starved for 24 hours, female RG-Wistar rats weighing 120 to 150 g were orally treated with the compound to be tested and then orally with Aspirin. The animals were sensitized by the aspirin pretreatment and a strong ulceration was induced in the glandular part of stomach of the animals by a subsequent stress (fastening, ducking in water of 22° C. temperature). The ulceration was evaluated as score values from 0 to 2.

[9] = Acute toxicity, mouse; conditions: in vivo
Method: (§2) These investigations were carried out in OFI mice and OFA rats after starving for 24 hours. Ten animals were used for each dose. The number of doses was 3 or 4.

[10] = Acute toxicity, rat; conditions: in vivo
Method: as §2

[11] = read-out: ED50 related to the number of ulcers
[12] = read-out: ED50 related to the occurrance of ulcers
[13] = read-out: ED50 related to the severity of ulcers

What does the source list for `CN(C)c1ccccc1C[S+]([O-])c1nc2ccccc2[nH]1` (centres unmarked) [NC-1300, 2-[(2-dimethylaminobenzyl)sulfinyl]-1H-benzimidazole, reference compound]?
Gastric juice, treated ([1]; 10 mg/kg p.o.): 6.11 mL; Gastric acid, change ([1]; 10 mg/kg p.o.): -34.0%; Gastric juice, change ([1]; 10 mg/kg p.o.): -16.3%; Gastric acid, treated ([1]; 10 mg/kg p.o.): 2.74 mL; Gastric juice, treated ([1]; 20 mg/kg p.o.): 4.63 mL; Gastric acid, change ([1]; 20 mg/kg p.o.): -58.2%; Gastric juice, change ([1]; 20 mg/kg p.o.): -17.5%; Gastric acid, treated ([1]; 20 mg/kg p.o.): 1.36 mL; Gastric juice, treated ([1]; 50 mg/kg p.o.): 4.50 mL; Gastric acid, change ([1]; 50 mg/kg p.o.): -88.1%; Gastric juice, change ([1]; 50 mg/kg p.o.): -23.7%; Gastric acid, treated ([1]; 50 mg/kg p.o.): 0.41 mL; ED50 ([1]; po, gastric acid, Shay rat): 16 mg/kg; Gastric acid, treated ([2]; 5 mg/kg i.p.): 1.97 mL; Gastric acid, change ([2]; 5 mg/kg i.p.): -43%; Gastric juice, change ([2]; 5 mg/kg i.p.): -45%; Gastric juice, treated ([2]; 5 mg/kg i.p.): 1.27 mL; Gastric acid, treated ([2]; 10 mg/kg i.p.): 0.78 mL; Gastric acid, change ([2]; 10 mg/kg i.p.): -77%; Gastric juice, change ([2]; 10 mg/kg i.p.): -79%; Gastric juice, treated ([2]; 10 mg/kg i.p.): 0.49 mL; Gastric acid, treated ([2]; 20 mg/kg i.p.): 0.61 mL; Gastric acid, change ([2]; 20 mg/kg i.p.): -82%; Gastric juice, change ([2]; 20 mg/kg i.p.): -78%; Gastric juice, treated ([2]; 20 mg/kg i.p.): 0.50 mL; ED50 ([2]; Rattus norvegicus, ip, histamine-induced, dose column i.p.): 6 mg/kg; Gastric acid, treated ([3]; 6.25 mg/kg i.p.): 1.89 mL; Gastric acid, change ([3]; 6.25 mg/kg i.p.): -31%; Gastric juice, change ([3]; 6.25 mg/kg i.p.): -25%; Gastric juice, treated ([3]; 6.25 mg/kg i.p.): 1.55 mL; Gastric acid, treated ([3]; 9 mg/kg i.p.): 1.86 mL; Gastric acid, change ([3]; 9 mg/kg i.p.): -32%; Gastric juice, change ([3]; 9 mg/kg i.p.): -24%; Gastric juice, treated ([3]; 9 mg/kg i.p.): 1.57 mL; Gastric acid, treated ([3]; 12.5 mg/kg i.p.): 0.72 mL; Gastric acid, change ([3]; 12.5 mg/kg i.p.): -74%; Gastric juice, change ([3]; 12.5 mg/kg i.p.): -58%; Gastric juice, treated ([3]; 12.5 mg/kg i.p.): 0.87 mL; ED50 ([3]; Rattus norvegicus, ip, carbachol-induced, dose column i.p.): 9.6 mg/kg; Bleedings, treated ([4]; 5 mg/kg p.o.): 84.4 mm; Bleedings, change ([4]; 5 mg/kg p.o.): -21.7%; Bleedings, treated ([4]; 10 mg/kg p.o.): 42.25 mm; Bleedings, change ([4]; 10 mg/kg p.o.): -60.8%; Bleedings, treated ([4]; 20 mg/kg p.o.): 11.65 mm; Bleedings, change ([4]; 20 mg/kg p.o.): -86.0%; ED50 ([4]; po, cytoprotection): 8.6 mg/kg; ED50 [5, 11]: 7.4 mg/kg; ED50 [5, 12]: 14.5 mg/kg; ED50 [5, 13]: 5.7 mg/kg; ED50 [6, 11]: 8 mg/kg; ED50 [6, 12]: 18 mg/kg; ED50 [6, 13]: 6 mg/kg; ED50 [7]: 8.4 mg/kg; ED50 [8]: 11.9 mg/kg; LD50 ([9]; ip, female mouse): 415 mg/kg; LD50 ([9]; ip, male mouse): 410 mg/kg; LD50 ([9]; po, female mouse, precision restricted by solubility): > 1000 mg/kg; LD50 ([9]; po, male mouse, precision restricted by solubility): > 1000 mg/kg; LD50 ([10]; ip, female rat): 245 mg/kg; LD50 ([10]; ip, male rat): 270 mg/kg; LD50 ([10]; po, female rat, precision restricted by solubility): 1400 mg/kg; LD50 ([10]; po, male rat, precision restricted by solubility): 1300 mg/kg
